Where a chain is given by its changes, count along the chain named. Entries after “also recorded” stand apart in the source; their conditions may differ. Counter-ions that a name gives are not always drawn.
Key:
[1] = target: T1, endogenous AR with a mutation (T877A), LNCaP cells (Homo sapiens, UniProt P10275, T878A); assay: PSA-luciferase reporter assay in LNCaP cells with DHT; format: cell-based
T1 construct: that each express endogenous AR; endogenous in cells; host or cells: LNCaP
T1 sequence (P10275 1-920 T878A): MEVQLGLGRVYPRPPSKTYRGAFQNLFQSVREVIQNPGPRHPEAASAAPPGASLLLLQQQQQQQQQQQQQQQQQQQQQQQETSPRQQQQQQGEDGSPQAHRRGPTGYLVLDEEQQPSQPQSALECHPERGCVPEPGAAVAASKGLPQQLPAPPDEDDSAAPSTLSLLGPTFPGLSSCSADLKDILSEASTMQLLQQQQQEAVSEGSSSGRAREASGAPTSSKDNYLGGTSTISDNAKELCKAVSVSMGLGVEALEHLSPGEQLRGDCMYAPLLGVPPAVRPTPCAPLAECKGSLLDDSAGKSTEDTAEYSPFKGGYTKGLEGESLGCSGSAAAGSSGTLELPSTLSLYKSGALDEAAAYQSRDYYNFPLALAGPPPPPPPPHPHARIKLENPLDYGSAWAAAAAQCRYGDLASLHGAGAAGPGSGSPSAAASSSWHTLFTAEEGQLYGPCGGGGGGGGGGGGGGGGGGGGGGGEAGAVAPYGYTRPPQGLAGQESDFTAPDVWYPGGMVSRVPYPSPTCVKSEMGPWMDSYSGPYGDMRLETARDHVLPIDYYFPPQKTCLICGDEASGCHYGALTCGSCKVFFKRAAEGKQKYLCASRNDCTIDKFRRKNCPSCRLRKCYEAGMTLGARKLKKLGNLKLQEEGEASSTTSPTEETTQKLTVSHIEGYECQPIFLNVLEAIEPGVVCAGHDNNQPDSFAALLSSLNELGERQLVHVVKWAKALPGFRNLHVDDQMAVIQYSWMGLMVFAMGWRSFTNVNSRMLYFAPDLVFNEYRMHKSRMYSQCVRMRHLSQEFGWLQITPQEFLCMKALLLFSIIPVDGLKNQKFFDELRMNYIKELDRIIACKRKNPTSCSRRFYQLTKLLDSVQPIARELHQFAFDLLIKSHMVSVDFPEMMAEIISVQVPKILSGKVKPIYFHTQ
Procedure: (§1) Cells were transfected with two reporter plasmids, a PSA-luciferase construct (androgen responsive), and an SV40-renilla luciferase construct as an internal control. The following day, the cells were split and drugs added in the presence of 3 nM DHT. Luciferase production was measured the following day (Dual luciferase assay kit, Promega).
(§2) Synergism can be defined as a combination index of less than one, using the non-exclusive assumption described by Chou et al. (Chou, T. C. and P. Talalay, Quantitative analysis of dose-effect relationships: the combined effects of multiple drugs or enzyme inhibitors. Adv Enzyme Regul, 1984. 22: p. 27-55).

[2] = target: T2, endogenous wild-type AR, LAPC4 cells (Homo sapiens, UniProt P10275); assay: PSA-luciferase reporter assay in LAPC4 cells with DHT; format: cell-based; conditions: 3 nM DHT
T2 construct: that each express endogenous AR; endogenous in cells; host or cells: LAPC4
T2 sequence (P10275 1-920): T1 sequence (P10275 1-920 T878A) with A878T
Procedure: as §1, §2

## Cc1nccc2c1[nH]c1cc(O)ccc12 [HH, harmol hydrochloride]
[1]; LNCaP cells, 3 nM DHT
  IC50: 127 nM
[1]; LNCaP, DHT titrated, moderate dose of each inhibitor, hydrochloride
  Mode of antagonism: effect on DHT dose-response of PSA-luciferase: inhibited maximal DHT-induced activation; also recorded: pattern consistent with a non-competitive antagonist
[2]
  IC50: 106 nM
